Measurements published in PubChem BioAssay AID1963832 (Molecular Pharmacology Branch, DTP, NCI, 2024).

Tested on: 885724-159-R-J1-PDC complex spheroid viability
Assay: Anticancer human tumor 885724-159-R-J1-PDC patient-derived pancreatic adenocarcinoma cell line growth inhibition [POLQ]
Details: for IC50: curve of first compound; for viability, T/C: stronger effect = lower value
Description: Multicellular complex tumor spheroid response to Polymerase (POL) inhibitors (novobiocin, ART-558, RP6685) in combination with a variety of drugs and investigational agents in selected tumor cell lines
The POL inhibitors (novobiocin, ART-558, and RP6685) were evaluated both individually and in combination with standard of care and investigational anticancer small molecules within a complex spheroid model of solid tumors. . Complex spheroids include a stromal component modeled by human endothelial cells (HUVEC) and fibroblasts modeled by human mesenchymal stem cells (MSCs). The concentration ranges selected for each drug and investigational agent were based upon clinically achievable concentrations if the clinical Cmax of the agent was known.
Compounds. The drugs and investigational agents: novobiocin (NSC847541), ART-558 (NSC835418), RP-6685 (NSC848927), peposertib (NSC802822), ceralasertib (NSC780249), elimusertib (NSC800525), camonsertib (NSC841442), AZD-1390 (NSC803789), olaparib (NSC753686), talazoparib (NSC767125), rucaparib (NSC756644), sotorasib (NSC818433), MRTX-1133 (NSC836407), SN-38 (NSC673596), topotecan (NSC609699), epotoside (NSC141540), doxorubicin (NSC123127), gemcitabine (NSC613327), 5-fluorouracil (NSC19893), paclitaxel (NSC125973), vemurafenib (NSC761431), MSA-2 (NSC828583), SN-011 (NSC837082), adavosertib (NSC754352), prexasertib (NSC758257), carboplatin (NSC241240) and oxaliplatin (NSC266046), were obtained from the National Cancer Institute (NCI) Developmental Therapeutics Program Chemical Repository (21). The FDA-approved anticancer drug set is available from the Developmental Therapeutics Program at https://dtp.cancer.gov/organization/dscb/obtaining/. […] The stock solutions were prepared in dimethyl sulfoxide (DMSO, Sigma-Aldrich, St. Louis, MO, cat. D2650), except for the platinum compounds which were prepared in saline (Quality Biological, Gaithersburg, MD, cat. 114-055-101), at 800-fold the tested concentration and stored at -70 degrees C prior to their use. All drugs and investigational agents were tested over a range starting from a high concentration at or near the clinical Cmax and decreasing in half-log increments. If the clinical Cmax for an agent had not been determined, the highest concentration tested was 10 microM, except for SN-38, which was tested at a high concentration of 1 microM.
Cell Culture. All cells were maintained in an incubator at 37 degrees C and 5% CO2 with 95% humidity. The PDC lines were cultured according to standard operating procedures established by the NCI PDMR (https://pdmr.cancer.gov). Table 3 of the manuscript, lists the cell lines along with the number of the three cell types plated to form the mct-spheroids and media for tumor cell growth. After thawing, all PDC lines, except 997537-175-T-J1-PDC and 415267-285-R-J2-PDC, were cultured in Matrigel-coated flasks prepared with a working solution of 1X Ham's F-12 nutrient mix, without supplementation (Thermo Fisher Scientific, cat. 11765054), 100 U/mL penicillin-streptomycin (Thermo Fisher Scientific, cat. 15140122), and 2.5% Matrigel (Corning Inc., Corning, NY, cat. 354248) for the first three passages. The two PDC lines 997537-175-T-J1-PDC and 415267-285-R-J2-PDC were cultured on uncoated flasks. The 857933-349-R-J2-PDC line was cultured in 6C/Colon 1B media containing advanced DMEM/F-12 (Thermo Fisher Scientific, cat. 12634028), 10 mM HEPES (Thermo Fisher Scientific, cat. 15630080), 1X GlutaMAX supplement (Thermo Fisher Scientific, cat. 35050061), 0.1 mg/mL primocin (InvivoGen, San Diego, CA, cat. ant-pm-2), 10% defined fetal bovine serum, heat inactivated (HyClone Laboratories Inc., Logan, UT, cat. SH30070.03HI), 50% L-WRN conditioned media (ATCC, cat. CRL-3276), 1.25 mM N-Acetyl-L-cysteine (Sigma-Aldrich, cat. A9165), 10 mM nicotinamide (Sigma-Aldrich, cat. N0636), 1X B-27 supplement (Thermo Fisher Scientific, cat. 17504044), 1X N-2 supplement (Thermo Fisher Scientific, cat. […]

[1] = second compound 0.0316 µM, first compound 0.0316 µM
[2] = second compound 0.0316 µM, first compound 0.1 µM
[3] = second compound 0.1 µM, first compound 0.0316 µM
[4] = second compound 0.1 µM, first compound 0.1 µM
[5] = second compound 0.316 µM, first compound 0.0316 µM
[6] = second compound 0.316 µM, first compound 0.1 µM
[7] = second compound 1 µM, first compound 0.0316 µM
[8] = second compound 1 µM, first compound 0.1 µM
[9] = second compound 3.16 µM, first compound 0.0316 µM
[10] = second compound 3.16 µM, first compound 0.1 µM
[11] = second compound 10 µM, first compound 0.0316 µM
[12] = second compound 10 µM, first compound 0.1 µM
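Further: spheroids exposed to compounds for 7 days.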

## CNCc1ccc(-c2[nH]c3cc(F)cc4c3c2CCNC4=O)cc1 + COC1C(OC(N)=O)C(O)C(Oc2ccc3c(O)c(NC(=O)c4ccc(O)c(CC=C(C)C)c4)c(=O)oc3c2C)OC1(C)C
Second compound 0.0316 µM
  IC50: > 10 µM
Second compound 0.1 µM
  IC50: > 10 µM
Second compound 0.316 µM
  IC50: > 10 µM
Second compound 1 µM
  IC50: > 10 µM
Second compound 3.16 µM
  IC50: > 10 µM
Second compound 10 µM
  IC50: > 10 µM
[1]
  viability, T/C: 95.9%
[2]
  viability, T/C: 96.7%
Second compound 0.0316 µM, first compound 0.316 µM
  viability, T/C: 95.4%
Second compound 0.0316 µM, first compound 1 µM
  viability, T/C: 94.7%
Second compound 0.0316 µM, first compound 3.16 µM
  viability, T/C: 93.2%
Second compound 0.0316 µM, first compound 10 µM
  viability, T/C: 75.9%
[3]
  viability, T/C: 96.4%
[4]
  viability, T/C: 96.5%
Second compound 0.1 µM, first compound 0.316 µM
  viability, T/C: 93.5%
Second compound 0.1 µM, first compound 1 µM
  viability, T/C: 108%
Second compound 0.1 µM, first compound 3.16 µM
  viability, T/C: 92.7%
Second compound 0.1 µM, first compound 10 µM
  viability, T/C: 84%
[5]
  viability, T/C: 101%
[6]
  viability, T/C: 96.4%
Second compound 0.316 µM, first compound 0.316 µM
  viability, T/C: 93.5%
Second compound 0.316 µM, first compound 1 µM
  viability, T/C: 95.5%
Second compound 0.316 µM, first compound 3.16 µM
  viability, T/C: 91%
Second compound 0.316 µM, first compound 10 µM
  viability, T/C: 81.2%
[7]
  viability, T/C: 102%
[8]
  viability, T/C: 91.5%
Second compound 1 µM, first compound 0.316 µM
  viability, T/C: 87.2%
Second compound 1 µM, first compound 1 µM
  viability, T/C: 85.4%
Second compound 1 µM, first compound 3.16 µM
  viability, T/C: 92.4%
Second compound 1 µM, first compound 10 µM
  viability, T/C: 78.3%
[9]
  viability, T/C: 93.3%
[10]
  viability, T/C: 88.2%
Second compound 3.16 µM, first compound 0.316 µM
  viability, T/C: 90.3%
Second compound 3.16 µM, first compound 1 µM
  viability, T/C: 84.2%
Second compound 3.16 µM, first compound 3.16 µM
  viability, T/C: 89%
Second compound 3.16 µM, first compound 10 µM
  viability, T/C: 82.5%
[11]
  viability, T/C: 102%
[12]
  viability, T/C: 94.8%
Second compound 10 µM, first compound 0.316 µM
  viability, T/C: 84%
Second compound 10 µM, first compound 1 µM
  viability, T/C: 87.7%
Second compound 10 µM, first compound 3.16 µM
  viability, T/C: 88.2%
Second compound 10 µM, first compound 10 µM
  viability, T/C: 88.9%

## Cn1ncnc1[C@H]1c2n[nH]c(=O)c3cc(F)cc(c23)N[C@@H]1c1ccc(F)cc1 + COC1C(OC(N)=O)C(O)C(Oc2ccc3c(O)c(NC(=O)c4ccc(O)c(CC=C(C)C)c4)c(=O)oc3c2C)OC1(C)C
Second compound 0.0316 µM
  IC50: > 0.1 µM
Second compound 0.1 µM
  IC50: > 0.1 µM
Second compound 0.316 µM
  IC50: > 0.1 µM
Second compound 1 µM
  IC50: > 0.1 µM
Second compound 3.16 µM
  IC50: > 0.1 µM
Second compound 10 µM
  IC50: > 0.1 µM
Second compound 0.0316 µM, first compound 0.000316 µM
  viability, T/C: 91.2%
Second compound 0.0316 µM, first compound 0.001 µM
  viability, T/C: 103%
Second compound 0.0316 µM, first compound 0.00316 µM
  viability, T/C: 92.2%
Second compound 0.0316 µM, first compound 0.01 µM
  viability, T/C: 94.9%
[1]
  viability, T/C: 87%
[2]
  viability, T/C: 72.1%
Second compound 0.1 µM, first compound 0.000316 µM
  viability, T/C: 101%
Second compound 0.1 µM, first compound 0.001 µM
  viability, T/C: 95.3%
Second compound 0.1 µM, first compound 0.00316 µM
  viability, T/C: 94.5%
Second compound 0.1 µM, first compound 0.01 µM
  viability, T/C: 93.6%
[3]
  viability, T/C: 89.8%
[4]
  viability, T/C: 82.8%
Second compound 0.316 µM, first compound 0.000316 µM
  viability, T/C: 113%
Second compound 0.316 µM, first compound 0.001 µM
  viability, T/C: 92%
Second compound 0.316 µM, first compound 0.00316 µM
  viability, T/C: 95.6%
Second compound 0.316 µM, first compound 0.01 µM
  viability, T/C: 95.4%
[5]
  viability, T/C: 89.4%
[6]
  viability, T/C: 78.7%
Second compound 1 µM, first compound 0.000316 µM
  viability, T/C: 105%
Second compound 1 µM, first compound 0.001 µM
  viability, T/C: 86.6%
Second compound 1 µM, first compound 0.00316 µM
  viability, T/C: 95.7%
Second compound 1 µM, first compound 0.01 µM
  viability, T/C: 85%
[7]
  viability, T/C: 83.6%
[8]
  viability, T/C: 77%
Second compound 3.16 µM, first compound 0.000316 µM
  viability, T/C: 105%
Second compound 3.16 µM, first compound 0.001 µM
  viability, T/C: 87.5%
Second compound 3.16 µM, first compound 0.00316 µM
  viability, T/C: 90.2%
Second compound 3.16 µM, first compound 0.01 µM
  viability, T/C: 98.5%
[9]
  viability, T/C: 93.7%
[10]
  viability, T/C: 75.7%
Second compound 10 µM, first compound 0.000316 µM
  viability, T/C: 95.1%
Second compound 10 µM, first compound 0.001 µM
  viability, T/C: 97.4%
Second compound 10 µM, first compound 0.00316 µM
  viability, T/C: 85%
Second compound 10 µM, first compound 0.01 µM
  viability, T/C: 90.5%
[11]
  viability, T/C: 88.4%
[12]
  viability, T/C: 75.3%
